From patent US12435059B2, “AMP-activated protein kinase inhibitors and methods of making and using the same” (The Regents of the University of Colorado, priority 2019, dated 2025)

Legend:
AMPKα1 [1] = biological target: T1, AMPKα1 (Homo sapiens (Human), UniProt Q13131); assay: LANCE Eu TR-FRET recombinant kinase assay, AMPK(α1); assay type: biochemical; settings: mean±S.D. (n=3); ATP 8 μM; read-out: IC50 (nM) AMPK(α1)
Protocol: (§1) Assays were performed at 25° C. in a reaction mixture consisting of 2.5 μL serially diluted inhibitor solution, 2.5 μL kinase, 2.5 μL ATP and 2.5 μL substrate. Reagents were incubated for 1 hr before the reaction was halted through the addition of EDTA (10 mM) after which Eu anti-phospho-CREB (Ser133) antibody (PerkinElmer) was added at a final concentration of 2 nM for 1 hr. […] (n=3)).

AMPK(α2) [2] = biological target: T2, AMPK(α2) (Homo sapiens (Human), UniProt P54646); assay: Kinome binding analysis at 100 nM, AMPK(α2); settings: AMPK-alpha2
K562 cells = assay: Annexin-V/DAPI flow cytometry viability of K562 cells under hypoxic culture conditions; assay type: cell-based; settings: K562, 5% O2, RPMI-1640, 72 hours
Protocol: FIG. 4 are a series of graphs showing the cell viability of K562 cells grown under hypoxic culture conditions and treated with compounds of the present disclosure. […] After pre-incubation cells were treated with the compounds of the present disclosure for 24 hours (left panel) and 72 hours (right panel) in a hypoxic environment. After treatment cells, were stained with Annexin-V-APC and DAPI in annexin buffer, incubated for 15 minutes at 4° C. and analyzed immediately by flow cytometry (Celesta, BD Bioscience). Viable cells were scored as Annexin V-negative and DAPI-negative population. A high-throughput sampler (BD Bioscience) was used to allow automated sampling processes. (n=3, error bars: ±S.D.).

AMPK(α2) [3] = biological target: T2, AMPK(α2); assay: LANCE Eu TR-FRET recombinant kinase assay, AMPK(α2); assay type: biochemical; settings: mean±S.D. (n=3); ATP 20 μM
Protocol: as §1

KIT-autoinhibited = KIT-autoinhibited (Homo sapiens (Human), UniProt P10721); assay: Kinome binding analysis at 100 nM, KIT-autoinhibited; settings: read-out: Percentage inhibition at 100 nM, KIT-autoinbibited
BTK = BTK (Homo sapiens (Human), UniProt Q06187); assay: Kinome binding analysis at 100 nM, BTK; settings: for BTK inhibition, in words: 100 nM
CSF1R = CSF1R (Homo sapiens (Human), UniProt P07333); assay: Kinome binding analysis at 100 nM, CSF1R; settings: read-out: Percentage inhibition at 100 nM, CSF1R
468 kinases [4] = biological target: 468 kinases (Homo sapiens, UniProt P30291); assay: biochemical; assay type: binding; settings: WEE1; read-out: % Inhibition @ 100 nM
468 kinases [5] = biological target: 468 kinases (Homo sapiens, UniProt O14936); assay: biochemical; assay type: binding; settings: CASK; read-out: % Inhibition @ 100 nM
468 kinases [6] = biological target: 468 kinases (Homo sapiens, UniProt O43318); assay: biochemical; assay type: binding; settings: TAK1; read-out: % Inhibition @ 100 nM
468 kinases [7] = biological target: 468 kinases (Homo sapiens, UniProt P57059); assay: biochemical; assay type: binding; settings: SIK; read-out: % Inhibition @ 100 nM
468 kinases [8] = biological target: 468 kinases (Homo sapiens, UniProt P11309); assay: biochemical; assay type: binding; settings: PIM1; read-out: % Inhibition @ 100 nM
468 kinases [9] = biological target: 468 kinases (Homo sapiens, UniProt P42336, C420R); assay: biochemical; assay type: binding; settings: PIK3CA(C420R); read-out: % Inhibition @ 100 nM
468 kinases [10] = biological target: 468 kinases (Homo sapiens, UniProt Q13557); assay: biochemical; assay type: binding; settings: CAMK2D; read-out: % Inhibition @ 100 nM
468 kinases [11] = biological target: 468 kinases (Homo sapiens, UniProt Q8IU85); assay: biochemical; assay type: binding; settings: CAMK1D; read-out: % Inhibition @ 100 nM
468 kinases [12] = biological target: 468 kinases (Homo sapiens, UniProt Q13546); assay: biochemical; assay type: binding; settings: RIPK1; read-out: % Inhibition @ 100 nM
AMPKα1 [13] = biological target: T1, AMPKα1; assay: Kinome binding analysis at 100 nM, AMPK(α1); settings: read-out: Percentage inhibition at 100 nM, AMPK(α1)
VEGFR2 = VEGFR2 (Homo sapiens (Human), UniProt P35968); assay: Kinome binding analysis at 100 nM, VEGFR2; settings: read-out: Percentage inhibition at 100 nM, VEGFR2
cellular AMPK = assay: p-ACC(Ser79) ELISA in K562 cell lysates (glucose-free media, 2-DG); assay type: cell-based; settings: K562, dose response, FIG. 2B
Protocol: FIGS. 2A and 2B are a series of graphs showing the effects of compounds of the present disclosure on cellular levels of p-ACC(Ser79) in K562 cells. FIG. 2A Quantitative ELISA determination of p-ACC(Ser79) levels in K562 lysates (1.0 mg mL^−1 total protein) following growth in glucose-free media for 24 h, 2-DG (12 mM) treatment for 1 h followed by treatment with inhibitor compounds at 5.0 μM for 2 h. Relative p-ACC levels are reported as a percentage of levels resultant from DMSO control treatment. […] Cells were collected, washed with PBS and lysed on ice in lysis buffer containing 1% Triton X (Cell Signaling). Lysates were someated (1×5 seconds) and centrifuged for 10 minutes at 10,000 rpm and 4° C., and the protein concentration in supernatants was determined by Lowry assay. Lysates were diluted with ELISA PathScan® sample diluent to a final volume of 100 μL and protein concentration of 1.0 mg/ml prior to use. The concentration of p-ACC (Ser79) was determined using an enzyme-linked immunosorbent assay according to recommended protocol (Cell Signaling, ELISA PathScan® phospho-Acetyl-CoA Carboxylase (Ser79)) and expressed as a relative percentage of the DMSO control.
The AMPK substrate ACC is used as a biomarker for the relative activity of AMPK, and the levels of p-ACC(Ser79) were measured by ELISA in the absence or presence of the compounds to determine the compounds' effects on cellular AMPK activity. The presence of total AMPK, p-AMPK, total ACC, and p-ACC was measured by Western blot in a panel of leukemic cell lines grown in glucoe competent or glucose-free media. […] The cell lysates from K562 cells grown in glucose-free media in the presence 2-DG and treated with compounds of the present disclosure were analyzed by the p-ACC(Ser79) ELISA to determine the effect of the compounds on cellular AMPK activity.

KDR = KDR (Homo sapiens (Human), UniProt P35968); assay: LanthaScreen Eu TR-FRET KDR competitive binding assay; settings: read-out: IC50 (nM) KDR; mean±S.D. (n=3); competitive binding

| Structure (SMILES) | IC50 (AMPKα1 [1]) [nM] | inhibition at 0.1 µM (AMPK(α2) [2]) [%] | Cell viability under hypoxic conditions after 72 hours (K562 cells) | IC50 (AMPK(α2) [3]) [nM] | inhibition at 0.1 µM (KIT-autoinhibited) [%] | BTK inhibition, in words (BTK) | inhibition at 0.1 µM (CSF1R) [%] | inhibition at 0.1 µM (468 kinases [4]) [%] | inhibition at 0.1 µM (468 kinases [5]) [%] | inhibition at 0.1 µM (468 kinases [6]) [%] | inhibition at 0.1 µM (468 kinases [7]) [%] | inhibition at 0.1 µM (468 kinases [8]) [%] | inhibition at 0.1 µM (468 kinases [9]) [%] | inhibition at 0.1 µM (468 kinases [10]) [%] | inhibition at 0.1 µM (468 kinases [11]) [%] | inhibition at 0.1 µM (468 kinases [12]) [%] | inhibition at 0.1 µM (AMPKα1 [13]) [%] | inhibition at 0.1 µM (VEGFR2) [%] | p-ACC level reduction across concentration range compared with sunitinib (cellular AMPK) | IC50 (KDR) [nM] | also measured |
| --- | --- | --- | --- | --- | --- | --- | --- | --- | --- | --- | --- | --- | --- | --- | --- | --- | --- | --- | --- | --- | --- |
| CCN(CC)CCNC(=O)c1c(C)[nH]c(/C=C2\C(=O)Nc3ccc(CCC(N)=O)cc32)c1C [Compound No. 16, (Z)-5-((5-(3-Amino-3-oxopropyl)-2-oxoindolin-3-ylidene)methyl)-N-(2-(diethylamino)ethyl)-2,4-dimethyl-1H-pyrrole-3-carboxamide] | 107 ± 17 | 35 | no measurable impact on cell viability | 60.7 ± 16.5 | 0 | no observable effect | 18 | 24 | 34 | 61 | 9 | 0 | 31 | 4 | 6 | 19 | 29 | 19 | significant reductions at both 3.125 μM and 12.5 μM | 3820 ± 530 | inhibition at 0.1 µM (BTK; read-out: Percentage inhibition at 100 nM, BTK): 0% |
| CCN(CC)CCNC(=O)c1c(C)[nH]c(/C=C2\C(=O)Nc3ccc(CCO)cc32)c1C [Compound No. 10, (Z)—N-(2-(Diethylamino)ethyl)-5-((5-(2-hydroxyethyl)-2-oxoindolin-3-ylidene)methyl)-2,4-dimethyl-1H-pyrrole-3-carboxamide] | 173 ± 15 | 64 | marked decrease in cell viability | 20.5 ± 2.7 | 28 | no observable effect | 24 | 15 | 19 | 59 | 0 | 0 | 0 | 20 | 0 | 1 | 49 | 55 | significant reduction of p-ACC levels compared to sunitinib at all concentrations tested except for 50 μM | 848 ± 41 | – |
